According to patent US11524966B1 (Valo Early Discovery, Inc., priority 2017, dated 2022):
pIC50: −log10 of the molar value.

These compounds were tested against T1, USP25 (USP25-His6, Boston Biochem E-546) (Homo sapiens, UniProt Q9UHP3) (assay: Ubiquitin-Rhodamine 110 Assay for USP25 Activity, Example A-2). Details: Ubiquitin-Rhodamine 110 assay, Example A-2; read-out: USP25 A-2 IC50 range.
T1 construct: His6; purchased Boston Biochem E-546
T1 sequence (Q9UHP3 1-1055): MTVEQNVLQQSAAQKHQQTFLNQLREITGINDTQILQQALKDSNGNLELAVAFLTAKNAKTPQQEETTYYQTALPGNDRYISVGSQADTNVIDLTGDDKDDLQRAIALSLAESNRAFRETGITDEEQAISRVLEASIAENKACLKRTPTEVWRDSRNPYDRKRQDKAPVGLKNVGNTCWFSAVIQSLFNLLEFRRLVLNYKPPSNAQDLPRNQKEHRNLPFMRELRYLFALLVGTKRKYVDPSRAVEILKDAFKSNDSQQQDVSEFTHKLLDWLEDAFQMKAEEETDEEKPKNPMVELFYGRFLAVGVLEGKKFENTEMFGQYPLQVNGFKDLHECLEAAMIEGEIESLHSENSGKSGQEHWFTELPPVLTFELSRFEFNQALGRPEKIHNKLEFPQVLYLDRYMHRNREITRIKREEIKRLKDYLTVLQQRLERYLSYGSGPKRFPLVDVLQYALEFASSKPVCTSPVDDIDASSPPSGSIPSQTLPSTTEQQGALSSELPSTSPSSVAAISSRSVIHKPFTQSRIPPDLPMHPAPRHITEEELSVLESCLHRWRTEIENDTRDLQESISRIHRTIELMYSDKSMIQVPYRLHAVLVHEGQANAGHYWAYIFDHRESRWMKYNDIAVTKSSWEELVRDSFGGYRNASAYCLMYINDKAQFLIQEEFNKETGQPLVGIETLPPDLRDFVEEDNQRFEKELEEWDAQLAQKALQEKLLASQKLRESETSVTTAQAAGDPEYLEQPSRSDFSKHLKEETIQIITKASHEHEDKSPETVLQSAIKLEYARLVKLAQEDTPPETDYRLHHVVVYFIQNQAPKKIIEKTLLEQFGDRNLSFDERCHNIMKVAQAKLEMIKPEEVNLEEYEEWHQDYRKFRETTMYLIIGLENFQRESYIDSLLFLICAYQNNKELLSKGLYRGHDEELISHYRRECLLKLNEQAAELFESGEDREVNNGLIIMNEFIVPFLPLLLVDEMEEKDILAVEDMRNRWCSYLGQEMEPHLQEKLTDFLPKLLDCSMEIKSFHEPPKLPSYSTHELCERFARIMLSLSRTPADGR
Assay type: biochemical
Procedure, shortened: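 Cleavage of ubiquitin-rhodamine 110 (25 nM, well below Km) by His-tagged USP25 at 75 pM is measured fluorimetrically after 45 min at room temperature and acid quench. Inhibitors are preincubated with enzyme for 30 minutes. IC50 values come from four-parameter logistic curve fitting.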
Compound `Cc1ccc2c(N)c(C(=O)N[C@H]3COc4cc(N5CC[C@H]6CNC[C@H]65)cc(F)c4C3)sc2n1` [Example 220, N-[(3R)-7-[(3aS,6aS)-octahydropyrrolo[2,3-c]pyrrol-1-yl]-5-fluoro-3,4-dihydro-2H-1-benzopyran-3-yl]-3-amino-6-methylthieno[2,3-b]pyridine-2-carboxamide] has a pIC50 of 6.70 to 7.30. In the case of `Cc1ccc2c(N)c(C(=O)N[C@H]3COc4cc(N5CC[C@@H]6CNC[C@@H]65)cc(F)c4C3)sc2n1` [Example 221, N-[(3R)-7-[(3aR,6aR)-octahydropyrrolo[2,3-c]pyrrol-1-yl]-5-fluoro-3,4-dihydro-2H-1-benzopyran-3-yl]-3-amino-6-methylthieno[2,3-b]pyridine-2-carboxamide], the pIC50 was 5.70 to 6.70. Compound `Cc1ccc2c(N)c(C(=O)N[C@H]3COc4cc(N5CC[C@H]6CCNC[C@H]65)ccc4C3)sc2n1` [Example 224, N-[(3R)-7-[(3aR,7aS)-octahydro-1H-pyrrolo[2,3-c]pyridin-1-yl]-3,4-dihydro-2H-1-benzopyran-3-yl]-3-amino-6-methylthieno[2,3-b]pyridine-2-carboxamide] has a pIC50 of 6.70 to 7.30. Work on `Cc1ccc2c(N)c(C(=O)N[C@H]3COc4cc(N5CC[C@@H]6CCNC[C@@H]65)ccc4C3)sc2n1` [Example 225] yielded a pIC50 of 7.30 to 9.00. For `Cc1cc(C)c2c(N)c(C(=O)N[C@H]3COc4cc(N5CC[C@H]6CNC[C@H]65)ccc4C3)sc2n1` [Example 226, N-[(3R)-7-[(3aS,6aS)-octahydropyrrolo[2,3-c]pyrrol-1-yl]-3,4-dihydro-2H-1-benzopyran-3-yl]-3-amino-4,6-dimethylthieno[2,3-b]pyridine-2-carboxamide], the pIC50 was 6.70 to 7.30. Compound `Cc1cc(C)c2c(N)c(C(=O)N[C@H]3COc4cc(N5CC[C@@H]6CNC[C@@H]65)ccc4C3)sc2n1` [Example 227, N-[(3R)-7-[(3aR,6aR)-octahydropyrrolo[2,3-c]pyrrol-1-yl]-3,4-dihydro-2H-1-benzopyran-3-yl]-3-amino-4,6-dimethylthieno[2,3-b]pyridine-2-carboxamide] has a pIC50 of 6.70 to 7.30. In the case of `N#Cc1c(N2CC3CCC(C2)N3)cc(F)c2c1OC[C@H](NC(=O)c1cnc3c(c1)[C@@H]1C[C@@H]1CN3)C2` [Example 228, (6aS,7aR)-N-[(3R)-8-cyano-7-{3,8-diazabicyclo[3.2.1]octan-3-yl}-5-fluoro-3,4-dihydro-2H-1-benzopyran-3-yl]-5H,6H,6aH,7H,7aH-cyclopropa[c]1,8-naphthyridine-2-carboxamide], the pIC50 was 5.70 to 6.70. `N#Cc1c(N2CC3CCC(C2)N3)cc(F)c2c1OC[C@H](NC(=O)c1cnc3c(c1)[C@H]1C[C@H]1CN3)C2` [Example 229, (6aR,7aS)-N-[(3R)-8-cyano-7-{3,8-diazabicyclo[3.2.1]octan-3-yl}-5-fluoro-3,4-dihydro-2H-1-benzopyran-3-yl]-5H,6H,6aH,7H,7aH-cyclopropa[c]1,8-naphthyridine-2-carboxamide] gave a pIC50 of under 5.70. `Cc1cc(C)c2c(N)c(C(=O)N[C@H]3COc4c(C#N)c(N5CC6CCC(C5)N6)cc(F)c4C3)sc2n1` [Example 230, 3-amino-N-[(3R)-8-cyano-7-{3,8-diazabicyclo[3.2.1]octan-3-yl}-5-fluoro-3,4-dihydro-2H-1-benzopyran-3-yl]-4,6-dimethylthieno[2,3-b]pyridine-2-carboxamide] gave a pIC50 of 5.70 to 6.70. With `Cc1ccc2c(N)c(C(=O)N[C@H]3COc4cc(N5CC[C@H]6CC[C@@H](N)C[C@H]65)ccc4C3)sc2n1` [Example 231, N-[(3R)-7-[(3aR,6R,7aR)-6-amino-octahydro-1H-indol-1-yl]-3,4-dihydro-2H-1-benzopyran-3-yl]-3-amino-6-methylthieno[2,3-b]pyridine-2-carboxamide] the pIC50 was 7.30 to 9.00. `Cc1ccc2c(N)c(C(=O)N[C@H]3COc4cc(N5CC[C@H]6CC[C@H](N)C[C@H]65)ccc4C3)sc2n1` [Example 232, N-[(3R)-7-[(3aR,6S,7aR)-6-amino-octahydro-1H-indol-1-yl]-3,4-dihydro-2H-1-benzopyran-3-yl]-3-amino-6-methylthieno[2,3-b]pyridine-2-carboxamide] gave a pIC50 of 6.70 to 7.30.
